According to the supplement of paper PMC10883282:
± gives the standard deviation of the averaged measurements.

Columns and labels:
Assay in all cases: relative viability vs DMSO control (72 h) (fraction); higher = more viable cells
SW1353 = tested on: SW1353
Method in brief: (§1)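 Densities for seeding sarcoma cell lines into 384-well plates were set to give 80–90% confluence. After 24 h, 2.5 µl of serially diluted compound from source plates of 10 mM to 0.0002 mM went in, and plates stayed 72 h at 37 °C in 5% CO2 with 0.1% DMSO vehicle and a 5 µM positive control. Percent growth from ATPLite readings, averaged over up to triplicate wells, served as relative viability, rescaled so 1 means full and 0 means none.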

G401 = tested on: G401
Method in brief: as §1

SK-ES-1 = tested on: SK-ES-1
Method in brief: as §1

KHOS-240S = tested on: KHOS-240S
Method in brief: as §1

MES-SA = tested on: MES-SA
Method in brief: as §1

SK-LMS-1 = tested on: SK-LMS-1
Method in brief: as §1

RD-ES = tested on: RD-ES
Method in brief: as §1

VA-ES-BJ = tested on: VA-ES-BJ
Method in brief: as §1

SYO-1 = tested on: SYO-1
Method in brief: as §1

HT1080 = tested on: HT1080
Method in brief: as §1

RD = tested on: RD
Method in brief: as §1

SW982 = tested on: SW982
Method in brief: as §1

Cc1cccc(-c2nn3c(c2-c2ccnc4ccc(C(N)=O)cc24)CCC3)n1 [Galunisertib]
Settings	relative viability
G401, 0.00017 µM	0.977 ± 0.053
G401, 0.00051 µM	0.93 ± 0.074
G401, 0.00152 µM	1.01 ± 0.053
G401, 0.00457 µM	0.959 ± 0.068
G401, 0.01372 µM	0.974 ± 0.094
G401, 0.04115 µM	0.964 ± 0.028
G401, 0.1235 µM	0.984 ± 0.054
G401, 0.3704 µM	0.971 ± 0.067
G401, 1.111 µM	0.965 ± 0.073
G401, 3.333 µM	0.9721 ± 0.0059
G401, 10 µM	0.979 ± 0.046
HT1080, 0.00017 µM	1.06 ± 0.056
HT1080, 0.00051 µM	1.04 ± 0.0077
HT1080, 0.00152 µM	0.959 ± 0.051
HT1080, 0.00457 µM	1.04 ± 0.039
HT1080, 0.01372 µM	1.04 ± 0.043
HT1080, 0.04115 µM	1.01 ± 0.024
HT1080, 0.1235 µM	1.01 ± 0.031
HT1080, 0.3704 µM	1.04 ± 0.025
HT1080, 1.111 µM	1.04 ± 0.018
HT1080, 3.333 µM	1.03 ± 0.024
HT1080, 10 µM	1.02 ± 0.035
KHOS-240S, 0.00017 µM	1.06 ± 0.063
KHOS-240S, 0.00051 µM	1.07 ± 0.054
KHOS-240S, 0.00152 µM	1.06 ± 0.025
KHOS-240S, 0.00457 µM	1.06 ± 0.043
KHOS-240S, 0.01372 µM	1.04 ± 0.048
KHOS-240S, 0.04115 µM	1.01 ± 0.035
KHOS-240S, 0.1235 µM	0.996 ± 0.031
KHOS-240S, 0.3704 µM	0.971 ± 0.017
KHOS-240S, 1.111 µM	0.987 ± 0.019
KHOS-240S, 3.333 µM	0.966 ± 0.05
KHOS-240S, 10 µM	0.929 ± 0.057
MES-SA, 0.00017 µM	0.925 ± 0.06
MES-SA, 0.00051 µM	0.922 ± 0.029
MES-SA, 0.00152 µM	0.916 ± 0.053
MES-SA, 0.00457 µM	0.897 ± 0.029
MES-SA, 0.01372 µM	0.911 ± 0.027
MES-SA, 0.04115 µM	0.91 ± 0.026
MES-SA, 0.1235 µM	0.9002 ± 0.0083
MES-SA, 0.3704 µM	0.891 ± 0.042
MES-SA, 1.111 µM	0.888 ± 0.022
MES-SA, 3.333 µM	0.863 ± 0.033
MES-SA, 10 µM	0.873 ± 0.029
RD, 0.00017 µM	1.06 ± 0.045
RD, 0.00051 µM	1.07 ± 0.019
RD, 0.00152 µM	1.079 ± 0.01
RD, 0.00457 µM	1.095 ± 0.0091
RD, 0.01372 µM	1.081 ± 0.01
RD, 0.04115 µM	1.09 ± 0.011
RD, 0.1235 µM	1.071 ± 0.0019
RD, 0.3704 µM	1.05 ± 0.014
RD, 1.111 µM	1.08 ± 0.032
RD, 3.333 µM	1.12 ± 0.025
RD, 10 µM	1.13 ± 0.029
RD-ES, 0.00017 µM	0.932 ± 0.034
RD-ES, 0.00051 µM	0.975 ± 0.013
RD-ES, 0.00152 µM	0.979 ± 0.026
RD-ES, 0.00457 µM	0.965 ± 0.014
RD-ES, 0.01372 µM	0.979 ± 0.02
RD-ES, 0.04115 µM	0.9533 ± 0.0039
RD-ES, 0.1235 µM	0.92 ± 0.046
RD-ES, 0.3704 µM	0.915 ± 0.027
RD-ES, 1.111 µM	0.913 ± 0.019
RD-ES, 3.333 µM	0.886 ± 0.025
RD-ES, 10 µM	0.894 ± 0.028
SK-ES-1, 0.00017 µM	1.02 ± 0.057
SK-ES-1, 0.00051 µM	1.03 ± 0.066
SK-ES-1, 0.00152 µM	0.998 ± 0.051
SK-ES-1, 0.00457 µM	0.978 ± 0.063
SK-ES-1, 0.01372 µM	1.06 ± 0.11
SK-ES-1, 0.04115 µM	1.02 ± 0.054
SK-ES-1, 0.1235 µM	0.946 ± 0.046
SK-ES-1, 0.3704 µM	0.996 ± 0.11
SK-ES-1, 1.111 µM	0.974 ± 0.076
SK-ES-1, 3.333 µM	0.96 ± 0.041
SK-ES-1, 10 µM	0.959 ± 0.07
SK-LMS-1, 0.00017 µM	1.04 ± 0.025
SK-LMS-1, 0.00051 µM	1 ± 0.032
SK-LMS-1, 0.00152 µM	1.01 ± 0.034
SK-LMS-1, 0.00457 µM	0.982 ± 0.042
SK-LMS-1, 0.01372 µM	1.01 ± 0.03
SK-LMS-1, 0.04115 µM	0.982 ± 0.029
SK-LMS-1, 0.1235 µM	1.01 ± 0.011
SK-LMS-1, 0.3704 µM	1 ± 0.026
SK-LMS-1, 1.111 µM	1 ± 0.031
SK-LMS-1, 3.333 µM	0.953 ± 0.023
SK-LMS-1, 10 µM	0.965 ± 0.031
SW982, 0.00017 µM	1 ± 0.021
SW982, 0.00051 µM	1.02 ± 0.03
SW982, 0.00152 µM	0.965 ± 0.019
SW982, 0.00457 µM	1 ± 0.044
SW982, 0.01372 µM	0.999 ± 0.02
SW982, 0.04115 µM	0.98 ± 0.035
SW982, 0.1235 µM	0.974 ± 0.013
SW982, 0.3704 µM	0.977 ± 0.023
SW982, 1.111 µM	0.988 ± 0.033
SW982, 3.333 µM	0.98 ± 0.027
SW982, 10 µM	1.05 ± 0.094
SW1353, 0.00017 µM	1.01 ± 0.057
SW1353, 0.00051 µM	0.967 ± 0.06
SW1353, 0.00152 µM	0.991 ± 0.027
SW1353, 0.00457 µM	0.954 ± 0.033
SW1353, 0.01372 µM	0.962 ± 0.017
SW1353, 0.04115 µM	0.926 ± 0.02
SW1353, 0.1235 µM	0.9202 ± 0.0043
SW1353, 0.3704 µM	0.959 ± 0.039
SW1353, 1.111 µM	0.967 ± 0.063
SW1353, 3.333 µM	1 ± 0.048
SW1353, 10 µM	0.976 ± 0.022
SYO-1, 0.00017 µM	0.972 ± 0.068
SYO-1, 0.00051 µM	0.942 ± 0.055
SYO-1, 0.00152 µM	0.913 ± 0.04
SYO-1, 0.00457 µM	0.898 ± 0.014
SYO-1, 0.01372 µM	0.867 ± 0.0097
SYO-1, 0.04115 µM	0.824 ± 0.012
SYO-1, 0.1235 µM	0.783 ± 0.028
SYO-1, 0.3704 µM	0.752 ± 0.06
SYO-1, 1.111 µM	0.738 ± 0.064
SYO-1, 3.333 µM	0.685 ± 0.053
SYO-1, 10 µM	0.671 ± 0.042
VA-ES-BJ, 0.00017 µM	1.04 ± 0.038
VA-ES-BJ, 0.00051 µM	1 ± 0.014
VA-ES-BJ, 0.00152 µM	1.03 ± 0.02
VA-ES-BJ, 0.00457 µM	0.9974 ± 0.0032
VA-ES-BJ, 0.01372 µM	0.983 ± 0.021
VA-ES-BJ, 0.04115 µM	0.986 ± 0.029
VA-ES-BJ, 0.1235 µM	1.01 ± 0.045
VA-ES-BJ, 0.3704 µM	1.01 ± 0.023
VA-ES-BJ, 1.111 µM	1.07 ± 0.047
VA-ES-BJ, 3.333 µM	1.08 ± 0.039
VA-ES-BJ, 10 µM	1.11 ± 0.035
